Literature values as cited in PubChem BioAssay AID1259409 (Chemical Carcinogenesis Research Information System (CCRIS), 2018).

Test system: rodent chemically induced tumor inhibition, incidence and multiplicity
Assay: CCRIS tumor inhibitor studies
Conditions: Promoter: NONE USED

SMILES: O=c1oc2c(O)c(O)cc3c(=O)oc4c(O)c(O)cc1c4c23
- tumour outcome (control, treated, inhibition, significance) (Carcinogen: 2-AMINO-1-METHYL-6-PHENYL-1H-IMIDAZO[4,5-B]PYRID INE, 105650-23-5, Dose [Inhibitor]: 0, 0.1% IN THE DIET FOR 52 WK (STUDY DURATION: 52 WK), Route [Inhibitor]: ORAL, Species: RAT, Strain/Sex: F344/FEMALE, Target Tissue: Type of Lesion: MAMMARY GLAND: ADENOCARCINOMA, Dose [Carcinogen]: 0.02% IN THE DIET FOR 52 WK): 8/20 (40%), 5/19 (26%), 35%, not significant
- tumour outcome (control, treated, inhibition, significance) (Carcinogen: 2-AMINO-1-METHYL-6-PHENYL-1H-IMIDAZO[4,5-B]PYRID INE, 105650-23-5, Dose [Inhibitor]: 0, 0.1% IN THE DIET FOR 52 WK (STUDY DURATION: 52 WK), Route [Inhibitor]: ORAL, Species: RAT, Strain/Sex: F344/FEMALE, Target Tissue: Type of Lesion: MAMMARY GLAND: FIBROADENOMA, Dose [Carcinogen]: 0.02% IN THE DIET FOR 52 WK): 2/20 (10%), 0/19 (0%), 100%, not significant
- tumour outcome (control, treated, inhibition, significance) (Carcinogen: 2-AMINO-1-METHYL-6-PHENYLIMIDAZO[4,5-B]PYRIDINE, 105650-23-5, Dose [Inhibitor]: 0, 0.1% IN DIET FOR 52 WK CONCURRENTLY WITH CARCINOGEN TREATMENT (STUDY DURATION: 52 WK), Route [Inhibitor]: ORAL, Species: RAT, Strain/Sex: F344/FEMALE, Target Tissue: Type of Lesion: LARGE INTESTINE: ADENOMA OR CARCINOMA, Dose [Carcinogen]: 0.02% IN DIET FOR 52 WK): 2/18 (11%), 3/18 (17%), -55%, not significant
- tumour outcome (control, treated, inhibition, significance) (Carcinogen: 2-AMINO-1-METHYL-6-PHENYLIMIDAZO[4,5-B]PYRIDINE, 105650-23-5, Dose [Inhibitor]: 0, 0.1% IN DIET FOR 52 WK CONCURRENTLY WITH CARCINOGEN TREATMENT (STUDY DURATION: 52 WK), Route [Inhibitor]: ORAL, Species: RAT, Strain/Sex: F344/FEMALE, Target Tissue: Type of Lesion: MAMMARY GLAND: ADENOCARCINOMA, Dose [Carcinogen]: 0.02% IN DIET FOR 52 WK): 8/20 (40%), 5/19 (26%), 35%, not significant
- tumour outcome (control, treated, inhibition, significance) (Carcinogen: 3-METHYLCHOLANTHRENE, 56-49-5, Dose [Inhibitor]: 1 UMOL 2/WK FOR 16 WK APPLIED 1 HR PRIOR TO EACH CARCINOGEN TREATMENT (STUDY DURATION: 16 WK), Route [Inhibitor]: DERMAL, Species: MOUSE, Strain/Sex: BALB/FEMALE, Target Tissue: Type of Lesion: SKIN: TUMOR, Dose [Carcinogen]: 1.5 UMOL 2/WK FOR 16 WK): 100%, 50%, 50%, not calculated
- tumour outcome (control, treated, inhibition, significance) (Carcinogen: 3-METHYLCHOLANTHRENE, 56-49-5, Dose [Inhibitor]: 1.0 UMOL APPLIED 1 HR PRIOR TO EACH CARCINOGEN DOSE 2/WK FOR 16 WK (STUDY DURATION: 16 WK), Route [Inhibitor]: DERMAL, Species: MOUSE, Strain/Sex: BALB/FEMALE, Target Tissue: Type of Lesion: SKIN: TUMOR, Dose [Carcinogen]: 1.5 UMOL 2/WK FOR 16 WK): 100%, 50%, 50%, not calculated
- tumour outcome (control, treated, inhibition, significance) (Carcinogen: 3-METHYLCHOLANTHRENE, 56-49-5, Dose [Inhibitor]: 2 UMOL 2/WK FOR 16 WK APPLIED 1 HR PRIOR TO EACH CARCINOGEN TREATMENT (STUDY DURATION: 16 WK), Route [Inhibitor]: DERMAL, Species: MOUSE, Strain/Sex: BALB/FEMALE, Target Tissue: Type of Lesion: SKIN: TUMOR, Dose [Carcinogen]: 1.5 UMOL 2/WK FOR 16 WK): 100%, 40%, 60%, not calculated
- tumour outcome (control, treated, inhibition, significance) (Carcinogen: 3-METHYLCHOLANTHRENE, 56-49-5, Dose [Inhibitor]: 2 UMOL APPLIED 1 HR PRIOR TO EACH CARCINOGEN DOSE 2/WK FOR 16 WK (STUDY DURATION : 16 WK), Route [Inhibitor]: DERMAL, Species: MOUSE, Strain/Sex: BALB/FEMALE, Target Tissue: Type of Lesion: SKIN: TUMOR, Dose [Carcinogen]: 1.5 UMOL 2/WK FOR 16 WK): 100%, 40%, 60%, not calculated
- tumour outcome (control, treated, inhibition, significance) (Carcinogen: 4-(METHYLNITROSAMINO)-1-(3-PYRIDYL)-1-BUTANONE, 64091-91-4, Dose [Inhibitor]: 0, 4 G/KG DIET 2 WK PRIOR TO CARCINOGEN TREATMENT AND CONTINUING FOR STUDY DURATION (STUDY DURATION: 26 MO), Route [Inhibitor]: ORAL, Species: MOUSE, Strain/Sex: STRAIN-A/FEMALE, Target Tissue: Type of Lesion: LUNG: ADENOMA, Dose [Carcinogen]: TOTAL DOSE 9.2 MG/MOUSE ADMINISTERED IN DRINKING WATER): 100%, 96%, 4%, not calculated
- tumour outcome (control, treated, inhibition, significance) (Carcinogen: 4-(METHYLNITROSAMINO)-1-(PYRIDYL)-1-BUTANONE, 64091-91-4, Dose [Inhibitor]: 0, 4 G/KG DIET (37 UMOL/D) BEGINNING 2 WK PRIOR TO CARCINOGEN DOSE AND CONTINUING FOR DURATION OF STUDY (STUDY DURATION:, Route [Inhibitor]: ORAL, Species: MOUSE, Strain/Sex: STRAIN-A/FEMALE, Target Tissue: Type of Lesion: LUNG: ADENOMA, Dose [Carcinogen]: 9.2, 9.4 MG/MOUSE IN DRINKING WATER DURING 7 WK): 28/28 (100%), 24/25 (96%), 4%, not significant
- tumour outcome (control, treated, inhibition, significance) (Carcinogen: 4-(METHYLNITROSOAMINO-1-(PYRIDYL)-1-BUTANONE, 64091-91-4, Dose [Inhibitor]: 0, 4 G/KG DIET BEGINNING 1 D POST CARCINOGEN DOSE AND CONTINUING FOR 16 WK (STUDY DURATION: 16 WK), Route [Inhibitor]: ORAL, Species: MOUSE, Strain/Sex: STRAIN-A/FEMALE, Target Tissue: Type of Lesion: LUNG: ADENOMA, Dose [Carcinogen]: 2 MG IN 0.2 ML OF O.9% NACL ONCE): 100%, 100%, 0%, not significant
